Assay results published in patent US20250230193A1, “CYCLIC COMPOUND HAVING SELECTIVE KRAS INHIBITORY EFFECT ON HRAS AND NRAS” (CHUGAI SEIYAKU KABUSHIKI KAISHA, priority 2022, published 2025).
Where a SMILES comes first, the peptide text is derived from it. Bridges are numbered along the chain shown (N, C = ends). [ ]: non-standard residue; d: D form. The star is where a group is joined. hPhe(3-Cl-4-CF3) = N[C@@H](CCc1ccc(C(F)(F)F)c(Cl)c1)C(=O)O; NPrPhe(4-CF3) = CCCN[C@@H](Cc1ccc(C(F)(F)F)cc1)C(=O)O; NMeAbu(4,4,4-F3) = CN[C@@H](CC(F)(F)F)C(=O)O; NMeGly(cPent) = CN[C@H](C(=O)O)C1CCCC1; Pro(4,4-F2) = O=C(O)[C@@H]1CC(F)(F)CN1; NMeD = CN[C@@H](CC(=O)O)C(=O)O; Morpholide = C1CN(*)CCO1; NMeA = CN[C@@H](C)C(=O)O; Ac5c = NC1(C(=O)O)CCCC1; Aze = O=C(O)[C@@H]1CCN1; Sar = CNCC(=O)O

Columns and labels:
[1] = target: GDP-bound NRAS wild-type protein (Homo sapiens, UniProt P01111); assay: Binding to NRAS by surface plasmon resonance (SPR), Single Cycle Kinetics; conditions: for NRAS/KRAS (ratio of KD value with respect to GDP-bound NRAS wild-type protein to KD value with respect to KRAS): class symbols
[2] = target: GDP-bound HRAS wild-type protein (Homo sapiens, UniProt P01112); assay: Binding to HRAS by surface plasmon resonance (SPR), Single Cycle Kinetics; conditions: for HRAS/KRAS (ratio of KD value with respect to GDP-bound HRAS wild-type protein to KD value with respect to KRAS): class symbols
[3] = SPR, GDP-bound NRAS wild-type vs GDP-bound KRAS wild-type
[4] = SPR, GDP-bound HRAS wild-type vs GDP-bound KRAS wild-type

Sequence of GDP-bound HRAS wild-type protein (P01112 whole entry): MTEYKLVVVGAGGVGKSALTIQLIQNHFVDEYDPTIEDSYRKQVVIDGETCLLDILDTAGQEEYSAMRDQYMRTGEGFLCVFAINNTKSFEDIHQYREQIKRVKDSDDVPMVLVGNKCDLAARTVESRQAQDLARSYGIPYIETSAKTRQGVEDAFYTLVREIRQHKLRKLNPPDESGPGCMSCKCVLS
Sequence of GDP-bound NRAS wild-type protein (P01111 whole entry): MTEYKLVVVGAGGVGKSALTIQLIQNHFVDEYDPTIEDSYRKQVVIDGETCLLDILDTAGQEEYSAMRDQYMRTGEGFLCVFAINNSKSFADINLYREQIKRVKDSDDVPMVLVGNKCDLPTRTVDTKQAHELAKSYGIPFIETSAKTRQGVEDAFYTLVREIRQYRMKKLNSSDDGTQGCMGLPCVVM

## CCO[C@@H]1C[C@H]2C(=O)NC3(CC(C)(C)C3)C(=O)N(C)[C@@H](C(CC)CC)C(=O)N(C)[C@H](C(=O)N3CCCC3)CC(=O)N(C)[C@@H](C)C(=O)N[C@@H]([C@@H](C)CC)C(=O)N(C)CC(=O)N(C)[C@H]3C/C=C\CCN(C3=O)[C@@H](Cc3ccc(C)cc3)C(=O)N(C)CC(=O)N[C@@H](CCc3cc(F)c(C(F)(F)F)c(F)c3)C(=O)N2C1 [PP2145]
[1]; [3]
  NRAS/KRAS (ratio of KD value with respect to NRAS to KD value with respect to KRAS): A (a compound having 10 or more and less than 20 is denoted as A)
[2]; [4]
  HRAS/KRAS (ratio of KD value with respect to HRAS to KD value with respect to KRAS): A (a compound having 10 or more and less than 20 is denoted as A)

## CCC[C@H]1C(=O)N[C@@H]([C@@H](C)CC)C(=O)N(C)CC(=O)N(C)[C@H]2C/C=C\CCN(C2=O)[C@@H](Cc2ccc(C(F)(F)F)cc2)C(=O)N(C)CC(=O)N[C@@H](CCc2ccc(Cl)c(OC)c2)C(=O)N2C[C@H](OCC)C[C@H]2C(=O)NC2(CC(C)(C)C2)C(=O)N(C)[C@@H](C(CC)CC)C(=O)N(C)[C@H](C(=O)N(C)C)CC(=O)N1C [PP2789]
[1]; KD ratio NRAS/KRAS
  NRAS/KRAS (ratio of KD value with respect to GDP-bound NRAS wild-type protein to KD value with respect to KRAS): AA (a compound having 20 or more is denoted as AA)
[2]; KD ratio HRAS/KRAS
  HRAS/KRAS (ratio of KD value with respect to GDP-bound HRAS wild-type protein to KD value with respect to KRAS): A (a compound having 10 or more and less than 20 is denoted as A)

## CCO[C@@H]1C[C@H]2C(=O)NC3(CC(C)(C)C3)C(=O)N(C)[C@@H](C3CCCC3)C(=O)N(C)[C@H](C(=O)N(C)CC)CC(=O)N(C)[C@@H](CC(F)F)C(=O)N[C@@H]([C@@H](C)CC)C(=O)N(C)CC(=O)N(C)[C@H]3C/C=C\CCN(C3=O)[C@@H](Cc3ccc(C(F)(F)F)cc3)C(=O)N(C)CC(=O)N[C@@H](CCc3ccc(C(F)(F)F)c(OC)c3)C(=O)N2C1 [PP1655]
[1]; KD ratio, GDP-bound NRAS wild-type vs GDP-bound KRAS wild-type, SPR
  NRAS/KRAS (ratio of KD value for NRAS to KD value for KRAS): A (a compound having 10 or more and less than 20 is denoted as A)
[2]; KD ratio, GDP-bound HRAS wild-type vs GDP-bound KRAS wild-type, SPR
  HRAS/KRAS (ratio of KD value for HRAS to KD value for KRAS): A (a compound having 10 or more and less than 20 is denoted as A)

## CCO[C@@H]1C[C@H]2C(=O)NC3(CCC3)C(=O)N(C)[C@@H](C3CCCC3)C(=O)N(C)[C@H](C(=O)N(C)C)CC(=O)N(C)[C@H]3CCCCCCc4ccc(cc4)C[C@@H](C(=O)N(C)CC(=O)N[C@@H](CCc4ccc(C(F)(F)F)c(OC)c4)C(=O)N2C1)N1CC/C=C\C[C@@H](C1=O)N(C)C(=O)CN(C)C(=O)[C@H]([C@@H](C)CC)NC3=O [PP2264]
[1]; [3]
  NRAS/KRAS (ratio of KD value with respect to NRAS to KD value with respect to KRAS): AA (a compound having 20 or more is denoted as AA)
[2]; [4]
  HRAS/KRAS (ratio of KD value with respect to HRAS to KD value with respect to KRAS): A (a compound having 10 or more and less than 20 is denoted as A)

## CCC[C@H]1C(=O)N[C@@H]([C@@H](C)CC)C(=O)N(C)CC(=O)N(C)[C@H]2C/C=C\CCN(C2=O)[C@@H](Cc2ccc(C(F)(F)F)cc2)C(=O)N(C)CC(=O)N[C@@H](CCc2ccc(C(F)(F)F)c(OC)c2)C(=O)N2C[C@H](OCC)C[C@H]2C(=O)NC2(CC(C)(C)C2)C(=O)N(C)[C@@H](CC2CCC2)C(=O)N(C)[C@H](C(=O)N(C)C)CC(=O)N1C [PP2764]
[1]; KD ratio NRAS/KRAS
  NRAS/KRAS (ratio of KD value with respect to GDP-bound NRAS wild-type protein to KD value with respect to KRAS): A (a compound having 10 or more and less than 20 is denoted as A)
[2]; KD ratio HRAS/KRAS
  HRAS/KRAS (ratio of KD value with respect to GDP-bound HRAS wild-type protein to KD value with respect to KRAS): A (a compound having 10 or more and less than 20 is denoted as A)

## CCCN1C(=O)[C@@H]2CCN2C(=O)[C@H](C)N(C)C(=O)[C@H]([C@@H](C)CC)NC(=O)[C@H](CC(F)(F)F)N(C)C(=O)C[C@@H](C(=O)N2CCOCC2)N(C)C(=O)[C@H](C2CCCC2)N(C)C(=O)C2(CCCC2)NC(=O)[C@@H]2CC(F)(F)CN2C(=O)[C@H](CCc2ccc(C(F)(F)F)c(Cl)c2)NC(=O)CN(C)C(=O)[C@@H]1Cc1ccc(C(F)(F)F)cc1 [PP0203] ([NMeAbu(4,4,4-F3)]I[NMeA][Aze][NPrPhe(4-CF3)][Sar][hPhe(3-Cl-4-CF3)][Pro(4,4-F2)][Ac5c][NMeGly(cPent)][NMeD]-Morpholide; lactam N-11)
[1]; KD ratio NRAS/KRAS, SPR
  NRAS/KRAS (ratio of KD for GDP-bound NRAS wild-type to KD for KRAS): C (A compound having a KD ratio of 0.1 or more and less than 3 is denoted as C)
[2]; KD ratio HRAS/KRAS, SPR
  HRAS/KRAS (ratio of KD for GDP-bound HRAS wild-type to KD for KRAS): C (A compound having a KD ratio of 0.1 or more and less than 3 is denoted as C)

## CCC[C@H]1C(=O)N[C@@H]([C@@H](C)CC)C(=O)N(C)CC(=O)N(C)[C@H]2C/C=C\CCN(C2=O)[C@@H](Cc2ccc(C(F)(F)F)cc2)C(=O)N(C)CC(=O)N[C@@H](CCc2ccc(Cl)c(C(F)(F)F)c2)C(=O)N2C[C@H](OCC)C[C@H]2C(=O)NC2(CC(C)(C)C2)C(=O)N(C)[C@@H](C2CCCC2)C(=O)N(C)[C@H](C(=O)N(C)C)CC(=O)N1C [PP2784]
[1]; KD ratio NRAS/KRAS
  NRAS/KRAS (ratio of KD value with respect to GDP-bound NRAS wild-type protein to KD value with respect to KRAS): A (a compound having 10 or more and less than 20 is denoted as A)
[2]; KD ratio HRAS/KRAS
  HRAS/KRAS (ratio of KD value with respect to GDP-bound HRAS wild-type protein to KD value with respect to KRAS): A (a compound having 10 or more and less than 20 is denoted as A)
